From patent US8722731B2, “Furanyl compounds and the use thereof” (NovoMedix, LLC, priority 2010, dated 2014)

How the values were obtained:
[1] = system: 1937; assay: IC50 cell-based assay, adherent cells, 1937; conditions: Breast, triple neg, 72 hours, read-out: IC50 of Compounds in Adherent Cell Types
Experimental: (§1) In one embodiment, the IC50s of the compounds provided herein were determined in cell-based assays using adherent cells. In one embodiment, the activity of the compounds provided herein were determined in a cell-based assay using the triple negative breast cancer cell line MDA-MB-468. In one embodiment, the adherent cells used in the cell-based assays may be a cell type selected from Table 1. In one embodiment, the cell-based assay may be carried out as provided herein. On day 0, cells were seeded at 20,000 cells per well in 100 µL of media into individual wells of a 96-well tissue culture plate. The next day, compounds were diluted to twice the desired final concentration and added in 100 µL of media for a final volume of 200 μL. Standard solutions for each compound were prepared at 1000× concentration in DMSO. The highest concentration was 30 mM. Serial 1:1 dilutions were made from there for a 6- or 9-point curve (e.g., 30 mM, 15 mM, 7.5 mM, etc). Compounds were then diluted 1:500 in media, and 100 µL of the resulting solution was added to each well for a final dilution of 1:1000. Each concentration of compound was tested in triplicate. Cells were incubated at 37° C. with 5% CO2. After 72 hours, 20 μL of CellTiter 96 Aqueous One Solution Cell Proliferation Assay (Promega) was added to each well. Cells were placed back in the incubator, and the absorbance at 490 nm was read after 2-3 hours. The concentration of compound that decreased the number of metabolically active cells by 50% was determined and reported as the IC50. “Percent Viability” was determined by subtracting the average background value (media only) and expressed as a ratio to the average value obtained from cells treated with only DMSO.

[2] = system: Nalm-6-VR; assay: IC50 cell-based assay, suspension cells, Nalm-6-VR; conditions: Leukemia, B-ALL, Vincristine resistant, read-out: IC50 of Compounds in Suspension Cell Types
Experimental: as §1
(§2) In one embodiment, the IC50s of the compounds provided herein were determined in cell-based assays using suspension cells. In one embodiment, the activity of the compounds provided herein were determined in a cell-based assay using the JeKo-1 cell line (mantle cell lymphoma) or the Pfeiffer cell line (diffuse large B-cell lymphoma). In one embodiment, the suspension cells used in the cell-based assays may be a cell type selected from Table 2. Assays with suspension cells were similar except that 40,000-60,000 cells were added to each well and compounds were added immediately after cell plating.

[3] = system: FaDu; assay: IC50 cell-based assay, adherent cells, FaDu; conditions: Homo sapiens, Pharynx, squamous cell, 72 hours, read-out: IC50 of Compounds in Adherent Cell Types
Experimental: as §1

[4] = system: U87-MG; assay: IC50 cell-based assay, adherent cells, U87-MG; conditions: Homo sapiens, U-87 MG, Brain, glioblastoma, 72 hours, read-out: IC50 of Compounds in Adherent Cell Types
Experimental: as §1

[5] = system: A431; assay: IC50 cell-based assay, adherent cells, A431; conditions: Homo sapiens, A-431, Skin, epidermoid carcinoma, 72 hours, read-out: IC50 of Compounds in Adherent Cell Types
Experimental: as §1

[6] = system: Caki-1; assay: IC50 cell-based assay, adherent cells, Caki-1; conditions: Homo sapiens, Kidney, clear cell carc., skin met, 72 hours, read-out: IC50 of Compounds in Adherent Cell Types
Experimental: as §1

[7] = system: HT-29; assay: IC50 cell-based assay, adherent cells, HT-29; conditions: Homo sapiens, Colorectal, adenocarcinoma, 72 hours, read-out: IC50 of Compounds in Adherent Cell Types
Experimental: as §1

[8] = system: OVCAR-3; assay: IC50 cell-based assay, adherent cells, OVCAR-3; conditions: Homo sapiens, Ovarian, adenocarcinoma, 72 hours, read-out: IC50 of Compounds in Adherent Cell Types
Experimental: as §1

[9] = system: SKBR-3; assay: IC50 cell-based assay, adherent cells, SKBR-3; conditions: Homo sapiens, SK-BR-3, Breast, ER−, 72 hours, read-out: IC50 of Compounds in Adherent Cell Types
Experimental: as §1

[10] = system: AsPC-1; assay: IC50 cell-based assay, adherent cells, AsPC-1; conditions: Homo sapiens, ASPC1, Pancreas, carcinoma, 72 hours, read-out: IC50 of Compounds in Adherent Cell Types
Experimental: as §1

[11] = system: SupB15; assay: IC50 cell-based assay, suspension cells, SupB15; conditions: Homo sapiens, SUP-B15, Leukemia, B-ALL (Philadelphia chromosome+), read-out: IC50 of Compounds in Suspension Cell Types
Experimental: as §1, §2

[12] = system: MCF-7; assay: IC50 cell-based assay, adherent cells, MCF-7; conditions: Homo sapiens, MCF7, Breast, ER+, 72 hours, read-out: IC50 of Compounds in Adherent Cell Types
Experimental: as §1

Compound | IC50 [1] | IC50 [2] | IC50 [3] | IC50 [4] | IC50 [5] | IC50 [6] | IC50 [7] | IC50 [8] | IC50 [9] | IC50 [10] | IC50 [11] | IC50 [12]
O=C(Nc1cc(C(F)(F)F)cc(C(F)(F)F)c1)c1cc(-c2ccccc2)oc1C(F)(F)F [Compound 1, 5-Phenyl-2-trifluoromethyl-furan-3-carboxylic acid (3,5-bis-trifluoromethyl-phenyl)-amide] | < 5 µM | < 5 µM | < 5 µM | < 5 µM | < 5 µM | > 20 µM | < 5 µM | < 5 µM | < 5 µM | < 5 µM | < 5 µM | < 5 µM
O=C(Nc1cc(C(F)(F)F)cc(C(F)(F)F)c1)c1cc(-c2ccc(Cl)cc2)oc1C(F)(F)F [Compound 2, 5-(4-Chlorophenyl)-N-(3,5-bistrifluoromethylphenyl)-2-trifluoromethylfuran-3-carboxamide] | < 5 µM | < 5 µM | < 5 µM | 5 to 10 µM | < 5 µM | 5 to 10 µM | 5 to 10 µM | 5 to 10 µM | < 5 µM | 5 to 10 µM | < 5 µM | 5 to 10 µM
